{"source": "patent EP0157762B1", "about": "“NEW SUBSTITUTED PIPERIDINOGUANIDINES, PREPARATION PROCESS AND PHARMACEUTICAL COMPOSITIONS CONTAINING THEM” (BOUCHARA S.A., priority 1983, dated 1985)", "experiment": "Solubility (qualitative)", "format": "physicochemical"}
{"smiles": "CNC(=NC(N)=O)NCC1CCN(CCCC(=O)c2ccc(F)cc2)CC1", "note": "[Exemple I]", "values": [{"measurement": "solubilité dans les solvants organiques", "setting": "organic solvents", "value": "peu soluble dans les solvants organiques"}, {"measurement": "solubilité dans l'eau", "setting": "water", "value": "soluble dans l'eau"}]}
